Values joined by “and” are separate entries in the source; they are usually repeats but may differ in a detail not shown here. Equal entries are not always repeated.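 Method: 48-hour compound exposure of cells in 96-well plates, five concentrations, linear interpolation of endpoints. Abbreviation: GI50, concentration required for 50% inhibition of growth. TGI marks complete inhibition of growth.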

Assay in all cases: NCI-60 cell line screen, 48 h
For assay [1], the system named is IGROV1 ovarian.
The subject of assay [2] is EKVX NSCLC.
Assay [3] has as its system UACC-257 melanoma.
Assay [4] relates to UACC-62 melanoma.
The test system of assay [5] is U251 CNS.
Assay [6] has as its system SW-620 colon.
Assay [7] deals with NCI-H23 lung.
Assay [8] has as its system HCT-116 colon.
Assay [9] concerns SN12C renal.
The subject of assay [10] is KM12 colon.

Regarding `C=C(Cl)C(Br)(CCl)CCC(Br)C(C)(C)Cl` (stereo not drawn), the GI50 is 2.13 µM in assay [1]; 2.17 µM in [4]; 2.74 µM in [5]; 1.46 µM in assay [6]; 2.46 µM in assay [7]; 1.89 µM in assay [9]. In assay [10], the GI50 was 2.94 µM. Further, the TGI is 4.16 µM in assay [1]; 12.8 µM in [2]; 7.78 µM and 8.58 µM in assay [3]; 6.83 µM in [4]; 6.93 µM in assay [5]; 4.54 µM and 3.23 µM in assay [6]. For the same compound, the TGI is 5.57 µM in assay [7]; 3.14 µM and 3.21 µM in assay [8]; 7.06 µM and 3.6 µM in assay [9]; 9.46 µM in [10].
Turning to `COc1ccc(CC2NCCc3c2[nH]c2ccccc32)cc1` (stereo not drawn), the TGI in [1], in assay [2], in [4], in [5], in assay [6] and in assay [8] was above 100 µM each time. The TGI in assay [9] and in [10] was above 100 µM in each case.
As for `CN(C)CC1CCCC/C1=N/OC(=O)c1ccc(Cl)cc1` (stereo not drawn), the TGI in assay [1], in assay [2], in assay [3], in [4], in assay [5] and in [6] was above 100 µM in each case. Besides, the TGI in assay [7], in assay [8], in assay [9] and in [10] was above 100 µM each time.
On to `N#CC(C(=O)C(=O)C(C#N)c1ccc(Br)cc1)c1ccc(Br)cc1` (stereo not drawn), for which the TGI in assay [1] was 30 µM; in assay [2] it was 24.6 µM; in assay [3], 25.1 µM; in assay [4], 7.03 µM; in [5] it was 23.8 µM; in assay [6], 31.3 µM. Also, the TGI in assay [7] stood at 14.1 µM; in [8] it was 29.5 µM; in assay [9], 28 µM; in [10] it was 22.4 µM.
Consider `C1CN2CCN3CCN4CCN1[P+]243`, for which the TGI in [1], in assay [2], in assay [3], in assay [4], in assay [5] and in assay [6] was above 100 µM in each case. In addition, the TGI in [7], in assay [8], in [9] and in assay [10] was above 100 µM throughout.
As to `COc1cc2c(cc1OCCCNC(=O)c1cccc3c(=O)c4ccccc4[nH]c13)N=C[C@@H]1CCCN1C2=O`, the TGI in assay [1] was above 33.5 µM; in assay [2], 0.14 µM; in assay [3] it was 0.759 µM; in assay [4], below 0.01 µM; in assay [5] it was above 48.8 µM; in [6], 23.6 µM. Further, the TGI in [7] is below 0.0225 µM; in assay [8], above 100 µM; in assay [9], below 0.0126 µM; in [10], 13.2 µM. For the same compound, the GI50 is 0.0166 µM in [2]; below 0.01 µM in assay [3]; below 0.01 µM in assay [4]; below 0.01 µM in [5]; below 0.01 µM in assay [6]; below 0.01 µM in [7]. The GI50 in assay [8] and in assay [9] was below 0.01 µM in each case.
For the compound `C#C[C@]1(O)CCC2C3CCc4cc(O)ccc4C3CC[C@@]21C` (stereo partly drawn), the GI50 is 11.2 µM in assay [1]; 1.66 µM in [2]; 10.4 µM in assay [3]; 4.12 µM in [4]; 4.09 µM in assay [5]; 3.8 µM in assay [6]. The GI50 in [7] was 4.7 µM; in assay [8], 4.68 µM; in [9], 6.41 µM; in assay [10] it was 3.14 µM. Further, the TGI in [1] is 52.4 µM; in [2] it was above 100 µM; in assay [3] it was 41.4 µM; in assay [4], 22.8 µM; in assay [5], 17.5 µM; in assay [6], 23.6 µM. For the same compound, the TGI in assay [7] was 25.7 µM; in assay [8], 20 µM; in assay [9], 37.6 µM; in assay [10], 13.9 µM.
On to `Cc1[nH]c2ccccc2c1C(=O)/C=C/c1ccccc1O`, for which the TGI in [1], in assay [2], in assay [3], in assay [4], in assay [5] and in assay [6] was above 100 µM each time. Besides, the TGI in [7], in assay [8], in assay [9] and in assay [10] was above 100 µM each time.
On to `Cc1cc(Cl)ccc1NC(=O)C(=O)Cc1nc2ccccc2o1`, for which the TGI in [1], in assay [2], in assay [3], in [4], in [5] and in assay [6] was above 100 µM each time. Besides, the TGI in assay [7], in assay [8], in assay [9] and in assay [10] was above 100 µM in each case.
Regarding `Cc1ccc(NC(=O)CC2CC2)cc1-c1ccc(C(=O)NCC2CC2)cc1`, the GI50 was above 25 µM in assay [1]; above 25 µM in assay [2]; above 25 µM in [3]; above 21.7 µM in assay [4]; above 25 µM in assay [5]; above 25 µM in assay [6]. The GI50 in assay [7], in assay [8], in assay [9] and in [10] was above 25 µM throughout. Moreover, the TGI in assay [1], in assay [2], in assay [3], in assay [4], in [5] and in [6] was above 25 µM throughout. Also, the TGI in assay [7], in assay [8], in assay [9] and in assay [10] was above 25 µM each time.
In the case of `COc1ccc2c(c1)C(=O)c1c-2c(N2CCN(C(=O)CNCCNCCO)CC2)nc2ccccc12`, the GI50 in assay [1] was 1.72 µM; in assay [2], 7.15 µM; in assay [3] it was 2.83 µM; in assay [4], 2.82 µM; in assay [5], 4.08 µM; in [6], 1.73 µM. Also, the figures for the GI50 in [8], in assay [9] and in [10] were 1.59 µM, 3.91 µM and 2.48 µM, respectively. The TGI in assay [1] turned out to be 4.73 µM; in assay [2], 19.7 µM; in [3], 6.4 µM; in assay [4], 8.64 µM; in assay [5] it was 16.3 µM; in assay [6], 3.28 µM. Also, the TGI in assay [8] amounted to 3.07 µM; in assay [9], 13.3 µM; in assay [10] it was 5.79 µM.
In the case of `CCOC(=O)Nc1ccc(C)c(NC(=O)OCC)c1`, the TGI in assay [1], in [2], in assay [3], in assay [4], in assay [5] and in assay [6] was above 100 µM each time. Also, the TGI in assay [7], in assay [8], in assay [9] and in [10] was above 100 µM throughout.
As to `COc1ccc(/C=C2/N=C(c3ccccc3)N(c3c(C)n(C)n(-c4ccccc4)c3=O)C2=O)cc1OC`, the GI50 in assay [1], in [2], in [3], in assay [4], in [5] and in [6] was above 100 µM in each case. For the same compound, the GI50 in [7], in assay [8], in [9] and in assay [10] was above 100 µM each time. Besides, the TGI in assay [1], in [2], in assay [3], in assay [4], in assay [5] and in assay [6] was above 100 µM throughout. The TGI in assay [7], in assay [8], in [9] and in assay [10] was above 100 µM each time.
Consider `OCC1OC(c2nc(C3=NCCCN3)cs2)C(O)C1O` (stereo not drawn), for which the TGI in assay [1], in assay [2], in [3], in [4], in assay [5] and in [6] was above 100 µM in each case. Further, the TGI in assay [7] is above 100 µM; in [8], above 100 µM; in assay [9], above 100 µM; in assay [10], above 10 µM.
Regarding `COC(=O)C(Cc1nc2ccc(Cl)cc2[nH]c1=O)/C(=N\N)C(=O)Nc1cc(C)c(Cl)cc1S(=O)(=O)O` (stereo not drawn), the TGI in assay [1], in assay [2], in assay [3], in assay [4], in assay [5] and in assay [7] was above 100 µM in each case. Besides, the TGI in assay [8], in assay [9] and in [10] was above 100 µM throughout.
Turning to `CC12CP(=O)(c3ccccc3)CC1C2(Cl)Cl` (stereo not drawn), the TGI in assay [1], in [2], in assay [4], in [5], in assay [6] and in [7] was above 100 µM in each case. The TGI in [8], in assay [9] and in assay [10] was above 100 µM in each case.
With `COc1cccc2c1C(=O)c1c(O)c3c(c(O)c1C2=O)C[C@](O)(C(=O)CO)C[C@H]3O[C@@H]1C[C@@H](NC(=O)CCCCCN(C)C2(c3ccc(F)cc3)CC3CCC2C3)[C@H](O)[C@@H](C)O1` (stereo partly drawn), the GI50 in assay [1] is 6.59 µM; in assay [2] it was 7.85 µM; in assay [3], 0.931 µM; in assay [4], 6.56 µM; in assay [5], 0.739 µM; in assay [6], 0.76 µM. Also, the values for the GI50 in [7], in assay [8] and in assay [9] were 3.49 µM, 0.729 µM and 5.75 µM, respectively. Further, the TGI in assay [1] came out at 14.8 µM; in assay [2] it was 17.7 µM; in assay [3] it was 1.73 µM; in [4], 15.7 µM; in assay [5], 1.49 µM; in assay [6], 1.85 µM. Further, the TGI in [7] came out at 10.7 µM; in assay [8], 1.51 µM; in assay [9], 14.5 µM.
In the case of `CN(C)C(n1cc2c(c1)-c1ccc(Cl)cc1C(c1ccccc1F)=NC2)n1cc2c(c1)-c1ccc(Cl)cc1C(c1ccccc1F)=NC2`, the TGI in assay [1], in assay [2], in assay [3], in assay [4], in assay [5] and in [6] was above 100 µM each time. Further, the TGI was 24.4 µM in [7], above 100 µM in assay [8] and above 100 µM in [9].
`CCC(C)COC(=O)c1ccc(N=Cc2ccc(C=Nc3ccc(C(=O)OCC(C)CC)cc3)cc2)cc1` (stereo not drawn): the TGI in assay [1], in assay [2], in [3], in assay [4], in assay [5] and in assay [6] was above 100 µM each time. Moreover, the TGI in assay [7], in [8] and in [9] was above 100 µM in each case.
Turning to `O=C(Nc1nc(=S)c2c(ncn2CCOC(=O)c2ccccc2)[nH]1)c1ccccc1`, the TGI in assay [1], in assay [2], in [3], in [4], in [5] and in assay [6] was above 100 µM in each case. For the same compound, the TGI in assay [8], in [9] and in assay [10] was above 100 µM each time.
On to `NC(=O)C12CC3CC(CC(F)(C3)C1)C2`, for which the TGI in assay [1], in assay [2], in assay [3], in [4], in assay [5] and in assay [6] was above 100 µM each time. Further, the TGI in assay [7], in [8] and in [10] was above 100 µM each time.

The values are drawn from PubChem BioAssay (NCI).
